The values below come from BindingDB's records for doi:10.1097/00001813-200302000-00012 (Korea Research Institute of Chemical Technology, 2003).

For orientation: IC50 means the midpoint of a concentration-inhibition curve. Higher therefore signals weaker potency.

A short description of series [1]: TP_TRANSPORTER: drug resistance (paclitaxel) in MES-SA/DX5 cells.
Series [2] in a line: TP_TRANSPORTER: drug resistance (paclitaxel) in HCT15/CL02 cells.

Each structure is given as a SMILES string.

`COc1ccc(CCN(C)CCC[C@@]2(C#N)CCc3c2ccc(OC)c3OC)cc1OC`: the IC50 came out at 6.63 µM in series [1] and 3.04 µM in series [2].

As to `COc1ccc(CCN(C)CCC[C@]2(C#N)CCc3c2ccc(OC)c3OC)cc1OC`, the IC50 in series [1] is 7.65 µM; in series [2], 3.11 µM.
